Twelve molecules from ChEMBL document CHEMBL1201862, “PubChem BioAssay data set” (2004) can be followed below.

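These data come from cells grown in 96-well plates and exposed to compound for 48 hours at five concentrations. Here, GI50 denotes the concentration required for 50% inhibition of growth.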 Activity calls are given as the source filed them. No stated cut-off is given here; in the data, active = GI50 up to about 1.1 µM and inactive = higher.

Test systems include SW-620; EKVX; 786-0; TK-10; SK-MEL-2; HCC 2998; HOP-62; M14; OVCAR-8; SNB-75; COLO 205; MCF7; A498; HL-60; T47D; CCRF-CEM; UO-31; A549; Malme-3M; MDA-N.
Holding throughout (assay): DTP human tumour cell line panel, 48 h

As usually defined, the GI50 is the concentration giving 50% growth inhibition.

In the case of `CC(=O)Nc1ccc(-c2nc3ccccc3s2)cc1C`, the GI50 was > 100 µM (inactive) in the experiment with SW-620; 25.1 µM (inactive) in the experiment on EKVX; 52.6 µM (inactive) with 786-0; 72.9 µM (inactive) with TK-10; 37.1 µM (inactive) in the experiment with SK-MEL-2; 42.9 µM (inactive) with HCC 2998. Besides, the GI50 was 40.6 µM (inactive) with HOP-62; 68.7 µM (inactive) with M14; 53.1 µM (inactive) in the experiment with OVCAR-8; 38.5 µM (inactive) with SNB-75; 45 µM (inactive) in the experiment with COLO 205; 33.5 µM (inactive) in the experiment with MCF7. Also, the GI50 in the experiment on A498 is 2.9 µM (inactive); in the experiment with HL-60 it was 29.9 µM (inactive); in the experiment with T47D it was 12.2 µM (inactive); with CCRF-CEM, > 100 µM (inactive); in the experiment with UO-31, 17.9 µM (inactive).

In the case of `CC1=NN(c2nc(N)nc(COc3ccc(N)cc3)n2)C(C)(C)C1`, the GI50 with SW-620, with EKVX, in the experiment with 786-0, in the experiment with TK-10, in the experiment with SK-MEL-2 and in the experiment with HCC 2998 was > 100 µM (inactive) each time. For the same molecule, the GI50 in the experiment with HOP-62, with M14, in the experiment on OVCAR-8, in the experiment on SNB-75, in the experiment with COLO 205 and in the experiment on MCF7 was > 100 µM (inactive) throughout. The GI50 in the experiment with A498, in the experiment on HL-60, with T47D, in the experiment on CCRF-CEM and in the experiment with UO-31 was > 100 µM (inactive) each time.

Consider `O=c1[nH]ncc2[nH]c3c(c12)CCc1ccccc1-3`, for which the GI50 was 34.4 µM (inactive) in the experiment on SW-620; 2.22 µM (inactive) in the experiment with EKVX; 29 µM (inactive) in the experiment on A549; 36.1 µM (inactive) in the experiment with 786-0; 27.6 µM (inactive) in the experiment with TK-10; 23 µM (inactive) with SK-MEL-2. Besides, the GI50 with HOP-62 is 45.9 µM (inactive); with M14, 44.3 µM (inactive); with OVCAR-8, 33.6 µM (inactive); in the experiment with SNB-75, 13 µM (inactive); with COLO 205, 13.2 µM (inactive); with A498 it was 27.7 µM (inactive). The GI50 is 32.9 µM (inactive) with Malme-3M; 24.7 µM (inactive) in the experiment on HL-60; 25.2 µM (inactive) with T47D; 31.5 µM (inactive) with CCRF-CEM; 30.2 µM (inactive) in the experiment on UO-31.

As to `C/N=C(\N)N/N=C(\C)c1ccc2oc3ccc(/C(C)=N/N/C(N)=N/C)cc3c2c1`, the GI50 in the experiment with SW-620 was 2.22 µM (inactive); in the experiment with EKVX, 4.24 µM (inactive); in the experiment on A549, 2.86 µM (inactive); with 786-0 it was 2.86 µM (inactive); in the experiment on TK-10, 4.38 µM (inactive); with SK-MEL-2, 2 µM (inactive). Moreover, the GI50 in the experiment with HCC 2998 was 2 µM (inactive); in the experiment on HOP-62, 1.54 µM (inactive); in the experiment with M14, 3.24 µM (inactive); in the experiment on OVCAR-8 it was 9.27 µM (inactive); in the experiment with COLO 205, 3.27 µM (inactive); with MCF7, 1.05 µM (active). The GI50 was 2.89 µM (inactive) in the experiment on HL-60, 2.39 µM (inactive) in the experiment with CCRF-CEM, 3.62 µM (inactive) in the experiment on MDA-N and 6.31 µM (inactive) with UO-31.

In the case of `COc1nc(NC2OC(COC(C)=O)C(OC(C)=O)C(OC(C)=O)C2OC(C)=O)c(/N=C(\C)C(C)=O)c(=O)n1C` (stereo not given), the GI50 in the experiment with SW-620, in the experiment on EKVX, in the experiment with A549, in the experiment on 786-0, with TK-10 and with SK-MEL-2 was > 100 µM (inactive) in each case. The GI50 in the experiment on HCC 2998, in the experiment on HOP-62, in the experiment on M14, in the experiment on OVCAR-8, in the experiment with SNB-75 and in the experiment with COLO 205 was > 100 µM (inactive) throughout. Also, the GI50 in the experiment with A498, in the experiment on Malme-3M, with HL-60, with CCRF-CEM and with UO-31 was > 100 µM (inactive) each time.

As for `O=C1CCC2(c3ccc(Cl)cc3)Nc3ncccc3N12` (stereo not given), the GI50 in the experiment on SW-620, in the experiment with EKVX, in the experiment on A549, with 786-0, with TK-10 and in the experiment on SK-MEL-2 was > 100 µM (inactive) throughout. For the same molecule, the GI50 is > 100 µM (inactive) in the experiment on HCC 2998; > 100 µM (inactive) in the experiment on HOP-62; > 100 µM (inactive) with M14; > 100 µM (inactive) in the experiment with OVCAR-8; 79.8 µM (inactive) in the experiment with SNB-75; > 100 µM (inactive) with COLO 205. Besides, the GI50 with A498, in the experiment with Malme-3M, with HL-60, in the experiment with CCRF-CEM and in the experiment on UO-31 was > 100 µM (inactive) in each case.

Take `C[N+]1(C)CCCC1C(=O)[O-]` (stereo not given): the GI50 in the experiment on SW-620, in the experiment on EKVX, in the experiment with A549, in the experiment on 786-0, in the experiment on TK-10 and in the experiment with SK-MEL-2 was > 100 µM (inactive) throughout. For the same molecule, the GI50 in the experiment on HCC 2998, in the experiment with HOP-62, in the experiment on M14, with OVCAR-8, in the experiment with SNB-75 and in the experiment on COLO 205 was > 100 µM (inactive) each time. For the same molecule, the GI50 with A498, in the experiment with Malme-3M, in the experiment on HL-60, in the experiment on CCRF-CEM and in the experiment on UO-31 was > 100 µM (inactive) each time.

As to `Oc1c(Cl)c(Cl)c(O)c(CCNc2ccc3ncccc3c2)c1Cl`, the GI50 with SW-620 was 4.63 µM (inactive); in the experiment with EKVX, 16.7 µM (inactive); in the experiment on A549 it was 17.2 µM (inactive); in the experiment with 786-0 it was 16.5 µM (inactive); in the experiment on TK-10 it was 13.4 µM (inactive); with SK-MEL-2 it was 6.32 µM (inactive). The GI50 with HCC 2998 is 12.9 µM (inactive); in the experiment on HOP-62, 12.5 µM (inactive); with M14, 11.5 µM (inactive); with OVCAR-8, 12.1 µM (inactive); in the experiment with SNB-75 it was 16.1 µM (inactive); with COLO 205, 6.55 µM (inactive). The GI50 was 4.76 µM (inactive) with MCF7; 18.6 µM (inactive) with Malme-3M; 5.07 µM (inactive) in the experiment with HL-60; 11 µM (inactive) in the experiment on T47D; 12.2 µM (inactive) in the experiment on UO-31.

As for `CSc1ncc2c(C#N)c3n(C)c4ccccc4n3c(=O)c2n1`, the GI50 with SW-620, in the experiment with EKVX, in the experiment on A549, with 786-0, in the experiment on TK-10 and in the experiment on SK-MEL-2 was > 100 µM (inactive) throughout. Besides, the GI50 with HCC 2998, in the experiment on HOP-62, in the experiment with M14, in the experiment with OVCAR-8, in the experiment with SNB-75 and with COLO 205 was > 100 µM (inactive) in each case. The GI50 with MCF7, with A498, in the experiment with Malme-3M, in the experiment with HL-60, with T47D and with CCRF-CEM was > 100 µM (inactive) throughout. The GI50 in the experiment with UO-31 was > 100 µM (inactive).

In the case of `CC(C)/C(Cl)=N\OC(=O)Nc1ccc(F)c([N+](=O)[O-])c1`, the GI50 in the experiment on SW-620 is 2.35 µM (inactive); with EKVX, 11.7 µM (inactive); in the experiment with A549, 23.9 µM (inactive); with 786-0, 2.78 µM (inactive); in the experiment with TK-10 it was 6.22 µM (inactive); in the experiment with SK-MEL-2, 16.2 µM (inactive). The GI50 in the experiment on HCC 2998 is 10.5 µM (inactive); with HOP-62, 17.8 µM (inactive); in the experiment on M14 it was 3.88 µM (inactive); in the experiment with OVCAR-8 it was 5.52 µM (inactive); with SNB-75, 14.2 µM (inactive); in the experiment on COLO 205, 2.03 µM (inactive). In addition, the GI50 was 17.7 µM (inactive) with MCF7; 19.2 µM (inactive) in the experiment on A498; 1.16 µM (inactive) with Malme-3M; 1.01 µM (active) in the experiment with HL-60; 0.902 µM (active) in the experiment with CCRF-CEM; 14 µM (inactive) in the experiment on MDA-N. Also, in the experiment with UO-31, the GI50 is 6.56 µM (inactive).

As for `Cc1ccccc1Nc1cn(CCOc2ccccc2)c(=O)n(CCOc2ccccc2)c1=O`, the GI50 with SW-620 is > 100 µM (inactive); with EKVX, > 100 µM (inactive); in the experiment with A549, > 100 µM (inactive); with 786-0 it was > 100 µM (inactive); with HCC 2998 it was > 100 µM (inactive); in the experiment on HOP-62, 24.6 µM (inactive). Further, the GI50 in the experiment on M14 is > 100 µM (inactive); in the experiment on COLO 205, 96.2 µM (inactive); in the experiment on MCF7, 90.8 µM (inactive); in the experiment on A498, > 100 µM (inactive); in the experiment on Malme-3M, 3.33 µM (inactive); in the experiment with HL-60, > 100 µM (inactive). Further, the GI50 in the experiment with CCRF-CEM, with MDA-N and in the experiment on UO-31 was > 100 µM (inactive) in each case.

Consider `CCOC(=O)Cc1nnc2c(-c3ccccc3)nc3ccccc3n12`, for which the GI50 is > 100 µM (inactive) in the experiment with SW-620; 27.9 µM (inactive) in the experiment with EKVX; > 100 µM (inactive) with A549; > 100 µM (inactive) in the experiment on 786-0; 31.2 µM (inactive) with TK-10; 28.1 µM (inactive) in the experiment on SK-MEL-2. For the same molecule, the GI50 in the experiment with HCC 2998 was 15.7 µM (inactive); with HOP-62, 14.4 µM (inactive); with M14 it was > 100 µM (inactive); in the experiment with COLO 205, > 100 µM (inactive); in the experiment on MCF7 it was 85.3 µM (inactive); with A498, 52.5 µM (inactive). The GI50 in the experiment with Malme-3M is > 100 µM (inactive); in the experiment on HL-60, > 100 µM (inactive); in the experiment with CCRF-CEM, > 100 µM (inactive); in the experiment with MDA-N it was > 100 µM (inactive); with UO-31, 71 µM (inactive).
